Test results as given in US10981932B2, “Macrocyclic indole derivatives” (Bayer Aktiengesellschaft, priority 2016, dated 2021).
Like-named read-outs stand apart in the source and are kept apart here.

Experiments:
MCL-1 = MCL-1 (Homo sapiens, UniProt Q07820); test: Protein-protein interaction assay MCL-1/Noxa BH3 peptide (MCL-1 assay), TR-FRET; format: binding; conditions: MBP-MCL-1 / Noxa BH3-derived peptide, median
In short: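 Inhibition values were normalized between DMSO controls with all reagents and controls lacking MCL-1. The binding competition used 1 nM MBP-MCL-1 in pH 7 Tris buffer containing 50 mM KF and 100 mM NaCl, with a 10 min compound preincubation at 22 °C.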

SUDHL5 [1] = test: Induction of caspase-3/7 activity (Caspase-Glo 3/7), SUDHL5; format: cell-based; conditions: caspase-3/7 induction, SUDHL5 cells, 3 h treatment, median
In short: (§1)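 Apoptosis induction measured as caspase-3/7 activity (Caspase-Glo 3/7) in DLBCL lines after 3 h treatment at 37 °C; EC50 derived relative to the reference compound's maximal induction, with C0 fixed at 1.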

SUDHL10 [2] = test: Induction of caspase-3/7 activity (Caspase-Glo 3/7), SUDHL10; format: cell-based; conditions: caspase-3/7 induction, SUDHL10 cells, 3 h treatment, median
In short: as §1

SUDHL5 [3] = test: Anti-proliferative effect (CellTiter-Glo, 72 h), SUDHL5; format: cell-based; conditions: SUDHL5 cells, antiproliferation, 72 h incubation, median, read-out: Antiproli SUDHL5 [M] (median)
In short: (§2)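 Luminescence from CellTiter-Glo, read 10 min after reagent addition, reports viable cell content after 72 h of compound treatment at 37 °C. A reference plate read at day 0 gives the starting baseline.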

SUDHL10 [4] = test: Anti-proliferative effect (CellTiter-Glo, 72 h), SUDHL10; format: cell-based; conditions: SUDHL10 cells, antiproliferation, 72 h incubation, median, read-out: Antiproli SUDHL10 [M] (median)
In short: as §2

OPM2 = test: Anti-proliferative effect (CellTiter-Glo, 72 h), OPM2; format: cell-based; conditions: OPM2 cells, median, read-out: IC50 antiproliferation assay OPM2 [M] (median)
In short: as §2

A2780 = test: Anti-proliferative effect (CellTiter-Glo, 72 h), A2780; format: cell-based; conditions: Homo sapiens, A2780, 72 h, A2780 cells, median, read-out: IC50 antiproliferation assay A2780 [M] (median)
In short: as §2

SUDHL5 [5] = test: Induction of cytotoxicity (CellTiter-Glo, 5 h), SUDHL5
Protocol: Therefore, cytotoxicity assays were run in parallel in SUDHL5 and SUDHL10 cells.
The different cell lines were plated in culture medium (RPMI 1640 [GIBCO #22400-089]supplemented with 10% Fetal Bovine Serum) at a density of 3.300 cells in 30 μl/well in a sterile, solid black, flat bottom, polystyrene, TC-treated 384-well microplate (Corning #3571) using Multidrop Combi Reagent Dispenser. As a control, medium without cells was also added to the plate. Cells were incubated in a humidified incubator at 37° C. overnight. On the next day, the cells were treated with compounds (stock solution, 10 mM in DMSO) using the HP D300 Digital Dispenser in a concentration range of 3.3×10e-5 M (33 μM) to 5×10e-9 M (5 nM) in a single-dot curve with at least 16 dilutions and a DMSO concentration of 0.33%. Rim wells were excluded. The cells were incubated for 5 h hours in a humidified incubator at 37° C. After this incubation, 30 μl of CellTiter-Glo@ Luminescent Cell Viability reagent (Promega, G7573) was added to each well using the Multidrop Combi Reagent Dispenser, followed by 15 min incubation on a shaker at room temperature. Finally, luminescence was read at 0.1 ms, with a gain of 3000 using the PHERAstar FS microplate reader (BMG Labtech).
The Bella DRC Master Sheet was used to calculate IC50s, with fixed CI=0 and C0=1.

SUDHL10 [6] = test: Induction of cytotoxicity (CellTiter-Glo, 5 h), SUDHL10
[7] = read-out: Cytotox SUDHL5 [M] (median), SUDHL5 cells, cytotoxicity induction, CellTiter-Glo, 5 h incubation, median
[8] = Homo sapiens, SU-DHL-5, 5 h, read-out: Cytotox SUDHL5 [M] (median), SUDHL5 cells, cytotoxicity induction, CellTiter-Glo, 5 h incubation, median
[9] = Homo sapiens, SU-DHL10, 5 h, read-out: Cytotox SUDHL10 [M] (median), SUDHL10 cells, cytotoxicity induction, CellTiter-Glo, 5 h incubation, median

Sequence of MCL-1 (Q07820 whole entry): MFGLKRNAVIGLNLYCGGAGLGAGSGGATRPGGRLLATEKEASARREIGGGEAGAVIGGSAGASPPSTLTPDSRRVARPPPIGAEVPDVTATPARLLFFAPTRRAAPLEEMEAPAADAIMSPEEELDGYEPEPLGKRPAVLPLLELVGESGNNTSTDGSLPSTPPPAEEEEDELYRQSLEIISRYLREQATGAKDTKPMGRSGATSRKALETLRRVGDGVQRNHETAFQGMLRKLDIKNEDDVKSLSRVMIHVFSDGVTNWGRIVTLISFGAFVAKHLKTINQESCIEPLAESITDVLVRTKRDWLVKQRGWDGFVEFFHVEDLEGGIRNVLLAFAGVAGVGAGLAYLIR

CN1CCCn2c(C(=O)O)c(CCCOc3cccc4ccccc34)c3cccc(c32)-c2c(COc3ccc(-n4ccccc4=O)cc3)nn(C)c2C1 (single isomer, unassigned; enantiomer 2) [Example 1-116, 7,9-Dimethyl-1-[3-(1-naphthyloxy)propyl]-11-{[4-(2-oxopyridin-1(2H)-yl)phenoxy]methyl}-4,5,6,7,8,9-hexahydropyrazolo[3′,4′:7,8][1,5]diazecino[9,10,1-hi]indole-2-carboxylic Acid (Enantiomer 2)]
IC50 (MCL-1): 0.0137 µM
EC50 (SUDHL5 [1]): 16.9 µM
EC50 (SUDHL10 [2]): 19.9 µM
IC50 (SUDHL5 [3]): 3.25e-06 M
IC50 (SUDHL10 [4]): 1.18e-05 M
IC50 (OPM2): 2.96e-05 M
IC50 (A2780): > 3.3e-05 M
IC50 (SUDHL5 [5]; [7]): 1.32e-05 M
IC50 (SUDHL10 [6]; read-out: Cytotox SUDHL10 [M] (median), SUDHL10 cells, cytotoxicity induction, CellTiter-Glo, 5 h incubation, median): > 3.3e-05 M

Cn1nc(COc2ccc(C3(O)CCOCC3)cc2)c2c1COCC=CCn1c(C(=O)O)c(CCCOc3cccc4ccccc34)c3cccc-2c31 (racemic) [Example 1-60, (rac)-(E/Z)-3-{[4-(4-hydroxytetrahydro-2H-pyran-4-yl)phenoxy]methyl}-1-methyl-7-[3-(naphthalen-1-yloxy)propyl]-1,10,13,15-tetrahydropyrazolo[4′,3′ 9,10][1,6]oxazacycloundecino[8,7,6-hi]indole-8-carboxylic Acid]
IC50 (MCL-1): 0.0171 µM
EC50 (SUDHL5 [1]; Homo sapiens, SU-DHL-5, 3 h): 19.5 µM
EC50 (SUDHL10 [2]; Homo sapiens, SU-DHL10, 3 h): 25.9 µM
IC50 (SUDHL5 [3]; Homo sapiens, SU-DHL-5, 72 h): 1.3e-05 M
IC50 (SUDHL10 [4]; Homo sapiens, SU-DHL10, 72 h): 9.02e-06 M
IC50 (OPM2; Homo sapiens, OPM-2, 72 h): > 3.3e-05 M
IC50 (A2780): 2.88e-05 M
IC50 (SUDHL5 [5]; [8]): 2.1e-05 M
IC50 (SUDHL10 [6]; [9]): 3.27e-05 M

Cc1cc(OCCCc2c(C(=O)O)n3c4c(cccc24)-c2c(C)nn(C)c2COCCCC3)cc(C)c1Cl (racemic) [Example 009, (rac)-7-[3-(4-chloro-3,5-dimethylphenoxy)propyl]-1,3-dimethyl-1,10,11,12,13,15-hexahydropyrazolo[4′,3′:9,10][1,6]oxazacycloundecino[8,7,6-hi]indole-8-carboxylic Acid]
IC50 (MCL-1): 0.00632 µM
EC50 (SUDHL5 [1]; Homo sapiens, SU-DHL-5, 3 h): 9.89 µM
EC50 (SUDHL10 [2]; Homo sapiens, SU-DHL10, 3 h): 17.8 µM
IC50 (SUDHL5 [3]; Homo sapiens, SU-DHL-5, 72 h): 3.62e-06 M
IC50 (SUDHL10 [4]; Homo sapiens, SU-DHL10, 72 h): 8.05e-06 M
IC50 (OPM2; Homo sapiens, OPM-2, 72 h): 2.1e-05 M
IC50 (A2780): 2.25e-05 M
IC50 (SUDHL5 [5]; [8]): 1.11e-05 M
IC50 (SUDHL10 [6]; [9]): 2.04e-05 M

Cn1nc(COc2ccc(N3CCOCC3)cc2)c2c1COCCCCn1c(C(=O)O)c(CCCOc3cccc4ccccc34)c3cccc-2c31 (single isomer, unassigned; enantiomer 1) [Example 122, 1-methyl-3-{[4-(morpholin-4-yl)phenoxy]methyl}-7-[3-(naphthalen-1-yloxy)propyl]-1,10,11,12,13,15-hexahydropyrazolo[4′,3′:9,10][1,6]oxazacycloundecino[8,7,6-hi]indole-8-carboxylic Acid (Enantiomer 1)]
IC50 (MCL-1): 0.0577 µM
EC50 (SUDHL5 [1]): 27.5 µM
EC50 (SUDHL10 [2]): 21.8 µM
IC50 (SUDHL5 [3]): 1.03e-05 M
IC50 (SUDHL10 [4]; Homo sapiens, SU-DHL10, 72 h): 1.17e-05 M
IC50 (OPM2; Homo sapiens, OPM-2, 72 h): 2.79e-06 M
IC50 (A2780): 7.4e-06 M
IC50 (SUDHL5 [5]; [7]): 2.92e-05 M
IC50 (SUDHL10 [6]; [9]): > 3.3e-05 M

CN1CCN(c2ccc(OCc3nn(C)c4c3-c3cccc5c(CCCOc6cccc7ccccc67)c(C(=O)O)n(c35)CCCCOC4)cc2)CC1 (racemic) [Example 1-7, (rac)-1-methyl-3-{[4-(4-methylpiperazin-1-yl)phenoxy]methyl}-7-[3-(naphthalen-1-yloxy)propyl]-1,10,11,12,13,15-hexahydropyrazolo[4′,3′:9,10][1,6]oxazacycloundecino[8,7,6-hi]indole-8-carboxylic Acid]
IC50 (MCL-1): 0.0158 µM
EC50 (SUDHL5 [1]; Homo sapiens, SU-DHL-5, 3 h): > 33 µM
EC50 (SUDHL10 [2]; Homo sapiens, SU-DHL10, 3 h): > 33 µM
IC50 (SUDHL5 [3]; Homo sapiens, SU-DHL-5, 72 h): 1.63e-06 M
IC50 (SUDHL10 [4]; Homo sapiens, SU-DHL10, 72 h): > 3.3e-05 M
IC50 (OPM2; Homo sapiens, OPM-2, 72 h): > 3.3e-05 M
IC50 (A2780): > 3.3e-05 M
IC50 (SUDHL5 [5]; [8]): > 3.3e-05 M
IC50 (SUDHL10 [6]; [9]): 8.17e-06 M
